The record followed here is patent US20170253601A1, “Substituted Pyrrolidine Compounds” (EPIZYME, INC., priority 2014, published 2017).

A value given as a limit tells only on which side of the number the result lay.

The first assay deals with T1, SMYD2 (Homo sapiens, UniProt Q9NRG4).
T1 construct: Full length SMYD2 (NP 064582.2) was cloned; His6 (N, cleaved yes); FLAG (N); made in house; host or cells: Sf9 insect cells
T1 sequence (Q9NRG4 whole entry): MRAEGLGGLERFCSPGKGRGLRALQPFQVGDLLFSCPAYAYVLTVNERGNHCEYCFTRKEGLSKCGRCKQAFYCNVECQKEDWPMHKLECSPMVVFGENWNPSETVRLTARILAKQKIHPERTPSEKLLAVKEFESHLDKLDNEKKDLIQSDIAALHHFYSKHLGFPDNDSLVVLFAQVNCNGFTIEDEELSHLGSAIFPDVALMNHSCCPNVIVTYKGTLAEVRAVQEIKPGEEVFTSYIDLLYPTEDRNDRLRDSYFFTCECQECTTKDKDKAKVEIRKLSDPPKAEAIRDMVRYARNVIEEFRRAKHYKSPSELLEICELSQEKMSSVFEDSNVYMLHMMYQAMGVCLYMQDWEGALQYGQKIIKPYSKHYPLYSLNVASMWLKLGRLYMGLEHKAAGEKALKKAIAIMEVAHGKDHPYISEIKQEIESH
Put plainly: SMYD2 Biochemical Assay (3H-SAM, biotinylated peptide substrate, Flashplate). To be noted: IC50 values are an average of n = 1 to n = 50; read-out: SMYD2 Biochem IC50 (μM)*. Put shortly:
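Full-length His/FLAG-tagged SMYD2 expressed in Sf9 cells with tag cleaved, 1.5 nM, pre-incubated 30 min at room temperature with compound, then 10 nM 3H-SAM and 60 nM biotinylated peptide added. Buffer 20 mM Bicine pH 7.6, 1 mM TCEP, 0.005% BSG, 0.002% Tween20, 2% DMSO. Stopped with 600 uM cold SAM; 3H-peptide captured on streptavidin Flashplate; IC50 by curve fit.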
With `C[C@H]1CN(Cc2ccc(-c3cc(Cl)ccc3Cl)o2)C[C@H]1NC(=O)c1cc(C2CC2)on1` (racemic) [compound 198, (±)-cis-5-cyclopropyl-N-(1-{[5-(2,5-dichloro-phenyl)furan-2-yl]methyl}-4-methyl-pyrrolidin-3-yl)-1,2-oxazole-3-carboxamide], the IC50 was more than 50 µM.
Consider `C[C@@H]1CN(CC(F)(F)F)C[C@H]1NC(=O)c1cc(C2CC2)on1` (racemic) [compound 261, (±)-trans-5-cyclopropyl-N-[4-methyl-1-(2,2,2-trifluoroethyl)pyrrolidin-3-yl]-1,2-oxazole-3-carboxamide], for which the IC50 was more than 50 µM.
Still for that read-out and setting: the result for `CC[C@H]1CN(C(C)C)C[C@H]1NC(=O)c1cc(C2CC2)on1` (racemic) [compound 188, (±)-cis-5-cyclopropyl-N-[4-ethyl-1-(propan-2-yl)pyrrolidin-3-yl]-1,2-oxazole-3-carboxamide] reads 15.9 µM; that for `CC(C)N1C[C@@H](NC(=O)c2cc(C3CC3)on2)C[C@H]1COCC#CC1CCCCC1` (racemic) [compound 239, (±)-cis-N-[5-{[(3-cyclo-hexylprop-2-yn-1-yl)oxy]methyl}-1-(propan-2-yl)pyrrolidin-3-yl]-5-cyclopropyl-1,2-oxazole-3-carboxamide], more than 50 µM; that for `Cc1ccc2[nH]cc(CN3C[C@H](C)[C@H](NC(=O)c4cc(C5CC5)on4)C3)c2c1` (racemic) [compound 214, (±)-cis-5-cyclopropyl-N-[4-methyl-1-[(5-methyl-1H-indol-3-yl)methyl]pyrrolidin-3-yl]-1,2-oxazole-3-carboxamide], 29.5 µM.
Still for that read-out and setting: under `CC(C)c1cc(C(=O)N[C@@H]2C[C@@H](CNC(=O)c3ccccc3)N(C3CC3)C2)no1` (stereo in doubt) [compound 242, (±)-trans-N-[1-cyclo-propyl-5-[(phenyl-formamido)methyl]pyrrolidin-3-yl]-5-(propan-2-yl)-1,2-oxazole-3-carboxamide] stands more than 50 µM.
For `CN1C[C@@H](C(F)(F)F)[C@H](NC(=O)c2cc(C3CC3)on2)C1` (racemic) [compound 251, (±)-trans-5-cyclopropyl-N-[1-methyl-4-(trifluoro-methyl)pyrrolidin-3-yl]-1,2-oxazole-3-carboxamide], the IC50 is more than 50 µM.
Still for that read-out and setting: under `CC(C)N1CC(CNC(=O)c2ccccc2)C(NC(=O)c2cc(C3CC3)on2)C1` (centres unmarked) [compound 237, 5-cyclopropyl-N-{4-[(phenylformamido)methyl]-1-(propan-2-yl)pyrrolidin-3-yl}-1,2-oxazole-3-carboxamide] stands 10.5 µM; under `C[C@H]1CN(CC(=O)N(C)C)C[C@H]1NC(=O)c1cc(C2CC2)on1` (racemic) [compound 267, (±)-cis-5-cyclopropyl-N-[1-[(dimethyl-carbamoyl)methyl]-4-methylpyrrolidin-3-yl]-1,2-oxazole-3-carboxamide], more than 50 µM; under `C[C@H]1CN(Cc2cc(Cl)cnc2Cl)C[C@H]1NC(=O)c1cc(C2CC2)on1` (racemic) [compound 232, (±)-cis-5-cyclopropyl-N-[1-[(2,5-dichloro-pyridin-3-yl)methyl]-4-methylpyrrolidin-3-yl]-1,2-oxazole-3-carboxamide], 36.1 µM.
Still for that read-out and setting: the result for `C[C@@H]1CN(Cc2cccnc2)C[C@H]1NC(=O)c1cc(C2CC2)on1` (racemic) [compound 124, (±)-trans-5-cyclopropyl-N-[4-methyl-1-(pyridin-3-ylmethyl)pyrrolidin-3-yl]-1,2-oxazole-3-carboxamide] reads more than 50 µM; that for `CC(C)N1C[C@H](C)[C@H](NC(=O)c2cc(C3(O)COC3)on2)C1` (racemic) [compound 346, (±)-cis-5-(3-hydroxyoxetan-3-yl)-N-[4-methyl-1-(propan-2-yl)pyrrolidin-3-yl]-1,2-oxazole-3-carboxamide], more than 50 µM; that for `C[C@@H]1CN(CC(=O)N(C)C)C[C@H]1NC(=O)c1cc(C2CC2)on1` (racemic) [compound 277, (±)-trans-5-cyclopropyl-N-{1-[(dimethyl-carbamoyl)methyl]-4-methylpyrrolidin-3-yl}-1,2-oxazole-3-carboxamide], more than 50 µM.
On to `C[C@@H]1CN(Cc2ccnn2C)C[C@H]1NC(=O)c1cc(C2CC2)on1` (racemic) [compound 184, (±)-trans-5-cyclopropyl-N-[4-methyl-1-[(1-methyl-1H-pyrazol-5-yl)methyl]pyrrolidin-3-yl]-1,2-oxazole-3-carboxamide], for which the IC50 was more than 50 µM.
As to `CC(C)N1C[C@H](NC(=O)c2cc(C3CC3)on2)[C@@H](C(C)(C)C)C1` (racemic) [compound 146, (±)-trans-N-[4-tert-butyl-1-(propan-2-yl)pyrrolidin-3-yl]-5-cyclopropyl-1,2-oxazole-3-carboxamide], the IC50 is more than 50 µM.
Same read-out and setting: the result for `CC(=O)Nc1ccccc1N1C[C@@H](C)[C@H](NC(=O)c2cc(C3CC3)on2)C1` (racemic) [compound 295, (±)-trans-5-cyclopropyl-N-[1-(2-acetamido-phenyl)-4-methylpyrrolidin-3-yl]-1,2-oxazole-3-carboxamide] reads more than 50 µM; that for `C[C@@H]1CN(Cc2ccc(Cl)cc2)C[C@H]1NC(=O)c1cc(C2CC2)on1` (racemic) [compound 140, (±)-trans-N-{1-[(4-chlorophenyl)methyl]-4-methylpyrrolidin-3-yl]-5-cyclopropyl-1,2-oxazole-3-carboxamide], more than 50 µM.
On the same count and under the same terms, the result for `C[C@H]1CN(CC(C)(C)C)C[C@H]1NC(=O)c1cc(C2CC2)on1` (racemic) [compound 165, (±)-cis-5-cyclopropyl-N-[1-(2,2-dimethyl-propyl)-4-methylpyrrolidin-3-yl]-1,2-oxazole-3-carboxamide] reads 11.3 µM; that for `CN1C[C@H](NC(=O)c2cc(C3CC3)on2)[C@@H](C(C)(C)C)C1` (racemic) [compound 144, (±)-trans-N-[4-tert-butyl-1-methylpyrrolidin-3-yl]-5-cyclopropyl-1,2-oxazole-3-carboxamide], more than 50 µM; that for `C[C@@H]1CN(CCC2CCNCC2)C[C@H]1NC(=O)c1cc(C2CC2)on1` (racemic) [compound 133, (±)-trans-5-cyclopropyl-N-[4-methyl-1-[2-(piperidin-4-yl)ethyl]pyrrolidin-3-yl]-1,2-oxazole-3-carboxamide], more than 50 µM.
Take `COc1ccc(N2C[C@H](C)[C@H](NC(=O)c3cc(C4CC4)on3)C2)cc1` (racemic) [compound 308, (±)-cis-5-cyclopropyl-N-[1-(4-methoxy-phenyl)-4-methyl-pyrrolidin-3-yl]-1,2-oxazole-3-carboxamide]: the IC50 is more than 50 µM.
`CC(C)N1C[C@H](C)[C@H](NC(=O)c2cc(C(C)(C)C)on2)C1` (racemic) [compound 201, (±)-cis-5-tert-butyl-N-[4-methyl-1-(propan-2-yl)pyrrolidin-3-yl]-1,2-oxazole-3-carboxamide]: the IC50 is more than 50 µM.
Still for that read-out and setting: under `COc1ccc(CN2C[C@@H](C)[C@H](NC(=O)c3cc(C4CC4)on3)C2)cc1` (racemic) [compound 149, (±)-trans-5-cyclopropyl-N-[1-[(4-methoxy-phenyl)methyl]-4-methylpyrrolidin-3-yl]-1,2-oxazole-3-carboxamide] stands 45.6 µM.
The same measure, in the same setting: the result for `CN1C[C@H](NC(=O)c2cc(C3CC3)on2)[C@H](C(C)(C)C)C1` (racemic) [compound 257, (±)-cis-N-[4-tert-butyl-1-methylpyrrolidin-3-yl]-5-cyclopropyl-1,2-oxazole-3-carboxamide] reads more than 50 µM.
Same read-out and setting: the result for `O=C(N[C@@H]1CN(C2CC2)C[C@H]1CO)c1cc(C2CC2)on1` [compound 168, 5-cyclopropyl-N-[(3S,4R)-1-cyclopropyl-4-(hydroxymethyl)pyrrolidin-3-yl]-1,2-oxazole-3-carboxamide] reads 43.2 µM.

The same assay, now with this note: Table 1; average of n = 1 to n = 50; read-out: SMYD2 Biochem IC50.
As for `C[C@@H]1CN(C)C[C@H]1NC(=O)c1cc(C2CC2)on1` (racemic) [compound 39], the IC50 was found to be 33.6 µM.
As to `C[C@H]1CN(C2CC2)C[C@@H]1NC(=O)c1cc(C2CC2)no1` (racemic) [compound 50, (±)-trans-3-cyclopropyl-N-(1-cyclopropyl-4-methylpyrrolidin-3-yl)isoxazole-5-carboxamide], the IC50 was more than 50 µM.

The same assay, now with this note: Table 2; average of n = 1 to n = 50; read-out: SMYD2 Biochem IC50.
`C[C@H]1CN(CCS(C)(=O)=O)C[C@H]1NC(=O)c1cc(C2CC2)on1` (racemic) [compound 77, (±)-cis-cyclopropyl-N-((3S)-4-methyl-1-(2-(methyl-sulfonyl)ethyl)pyrrolidin-3-yl)isoxazole-3-carboxamide]: the IC50 is more than 50 µM.
Same read-out and setting: under `C[C@@H]1CN(Cc2ccncc2)C[C@H]1NC(=O)c1cc(C2CC2)on1` (racemic) [compound 85, (±)-trans-5-cyclopropyl-N-(4-methyl-1-(pyridin-4-ylmethyl)pyrrolidin-3-yl)isoxazole-3-carboxamide] stands more than 50 µM; under `C[C@@H]1CN(Cc2ccccn2)C[C@H]1NC(=O)c1cc(C2CC2)on1` (racemic) [compound 87, (±)-trans-5-cyclopropyl-N-(4-methyl-1-(pyridin-2-ylmethyl)pyrrolidin-3-yl)isoxazole-3-carboxamide], more than 50 µM; under `CCN1C[C@H](C)[C@H](NC(=O)c2cc(C3CC3)on2)C1` (racemic) [compound 110, (±)-cis-5-cyclopropyl-N-(1-ethyl-4-methylpyrrolidin-3-yl)isoxazole-3-carboxamide], 3 µM.
As for `C[C@H]1CN(Cc2ccncc2)C[C@H]1NC(=O)c1cc(C2CC2)on1` (racemic) [compound 108, (±)-cis-5-cyclopropyl-N-(4-methyl-1-(pyridin-4-ylmethyl)pyrrolidin-3-yl)isoxazole-3-carboxamide], the IC50 worked out at 22.6 µM.
